Reference: patent US8865759B2, “Use of dithiine-tetracarboximides for controlling phytopathogenic fungi” (priority 2008, dated 2014)

Test: logP determination by HPLC on reversed-phase column (C 18), EEC Directive 79/831 Annex V.A8
Format: physicochemical
Details: reversed-phase C 18, 43° C., acidic range pH 2.7, 0.1% aqueous formic acid/acetonitrile

Structure (SMILES): COCCn1c(=O)c2sc3c(=O)n(CCOC)c(=O)c3sc2c1=O [Compound 12, 2,6-Bis(2-methoxyethyl)-1H,5H-[1,4]dithiino[2,3-c:5,6-c]dipyrrole-1,3,5,7(2H,6H)-tetrone]
- log P: log P = 2.55

Structure (SMILES): CC(C(=O)O)n1c(=O)c2sc3c(=O)n(C(C)C(=O)O)c(=O)c3sc2c1=O (centres unmarked) [Compound 24, 2,2′-(1,3,5,7-Tetraoxo-1,3,5,7-tetrahydro-2H,6H-[1,4]dithiino[2,3-c:5,6-c]dipyrrole-2,6-diyl)dipropanoic acid]
- log P: log P = 1.76
